Data set [1] relates to cerebellar membrane cholesterol content. The following applies: 8% ethanol diet group, pups.
Description: Cholesterol content was measured using the Amplex Red assay kit (Molecular Probes, Eugene, Oreg.) according to the manufacturer's protocol. […] Briefly, tissue homogenates were prepared in RIPA buffer as described above. Samples, serially diluted in 1× reaction buffer (provided with the kit), were incubated with 150 μM Amplex Red reagent, 1 U/ml horseradish peroxidase, 1 U/ml cholesterol oxidase, and 0.1 U/ml cholesterol esterase in final reaction volumes of 100 μl. Reactions were incubated at 37° C. for 30 minutes and fluorescence was measured in a Fluorocount microplate reader (Packard Instrument Co., Meriden, Conn.) (Ex 560 nm/Em 590 nm). A standard curve was simultaneously generated using a cholesterol standard provided with the kit. The levels of cholesterol were normalized to protein concentration in the samples.
The test system of another data set is insulin receptors. The following applies: pup cerebellar membrane extracts, chronic gestational ethanol exposure relative to control; not dose-dependent.
The test system of another data set is IGF-II receptors. To be noted: pup cerebellar membrane extracts, chronic gestational ethanol exposure relative to control; not dose-dependent.
Another data set has as its system cerebellar ATP content. The following applies: rat, in vivo. As for the experimental part: (§1) Studies were done to characterize the degree to which ethanol-associated impairments in receptor binding were associated with reductions in insulin and IGF-I receptor tyrosine kinase activities, and insulin and IGF-I receptor protein expression. Receptor protein levels were measured by Western blotting with digital image densitometry.

A further data set deals with IGF-I receptors. The following applies: pup cerebellar membrane extracts, chronic gestational ethanol exposure relative to control; not dose-dependent.
In data set [2] the test system is insulin receptor tyrosine kinase. The following applies: cerebellar tissue, ethanol-exposed relative to control pups; normalized to receptor protein; not dose-dependent. As for the experimental part:
(§2) Insulin or IGF-I receptor molecules were immunoprecipitated from individual 100 μg protein samples using rabbit polyclonal antibodies (1 μg/ml) and Protein A sepharose (Amersham-Pharmacia, Arlington Heights, Ill.) (Ausubel et al, (2002) Current Protocols in Molecular Biology. John Wiley & Sons New York). Receptor tyrosine kinase activity was measured in the immune precipitates using a non-isotopic assay (Chemicon International, Temecula, Calif.) according to the manufacturer's protocol with small modifications. Briefly, tyrosine phosphorylation of the biotinylated synthetic peptide substrate captured onto streptavidin-coated wells was detected with horseradish peroxidase conjugated anti-phospho-tyrosine and SuperSignal West Pico chemiluminescent substrate (Pierce Chemical Co., Rockford, Ill.). Luminescence was measured in a TopCount machine (Packard Instrument Co., Meriden, Conn.). […]
as §1

In data set [3] the test system is IGF-I receptor tyrosine kinase. The following applies: cerebellar tissue, ethanol-exposed relative to control pups; normalized to receptor protein; not dose-dependent. As for the experimental part: as §2, §1
Data set [4] concerns acetylcholinesterase (AChE) mRNA. To be noted: ethanol-exposed pup cerebellar tissue vs control. The protocol: (§3) Total RNA was isolated from brain tissue using TRIzol reagent (Invitrogen, Carlsbad, Calif.) according to the manufacturer's protocol. RNA concentrations and purity were determined from the absorbances measured at 260 nm and 280 nm. RNA (2 μg) was reverse transcribed using the AMV First Strand cDNA synthesis kit (Roche Diagnostics Corporation, Indianapolis, Ind.) and random oligodeoxynucleotide primers. Real time quantitative RT-PCR was used to measure mRNA levels of insulin, IGF-I, and IGF-II growth factors, their corresponding receptors, neuronal (Hu), astrocytic (glial fibrillary acidic protein; GFAP), oligodendroglial (myelin-associated glycoprotein-1; MAG-1), microglial (AIF1), and endothelial (endothelin-1; ET-1) cell genes, acetyl cholinesterase (AChE), and choline acetyltransferase (ChAT). Ribosomal 18S RNA levels measured in parallel reactions were used to calculate relative abundance of the mRNA transcripts (Myers et al., Trends Biochem. Sci. 19:289 (1994); Baltensperger et al., Science 260:1950 (1993)). PCR amplifications were performed in 25 μl reactions containing cDNA generated from 2.5 ng of original RNA template, 300 nM each of gene specific forward and reverse primer (Table 1), and 12.5 μl of 2× QuantiTect SYBR Green PCR Mix (Qiagen Inc, Valencia, Calif.). […]

Data set [5] has as its system choline acetyltransferase (ChAT) mRNA. To be noted: ethanol-exposed pup cerebellar tissue vs control. As for the experimental part: as §3

Consider one molecule from US9308198B2, “Treatment, prevention, and reversal of alcohol-induced brain disease” (priority 2006, dated 2016).

Description for IGF-I receptors: (§4) Fresh frozen tissue (˜100 mg) was homogenized in 5 volumes of NP-40 lysis buffer (50 mM Tris-HCl, pH 7.5, 1% NP-40, 150 mM NaCl, 1 mM EDTA, 2 mM EGTA) containing protease inhibitors (1 mM PMSF, 0.1 mM TPCK, 1 μg/ml aprotinin, 1 μg/ml pepstatin A, 0.5 μg/ml leupeptin, 1 mM NaF, 1 mM Na4P2O7). Protein concentrations were determined using the bicinchoninic acid (BCA) assay (Pierce, Rockford, Ill.). Exploratory studies determined the amounts of protein and concentrations of radiolabeled ligand required to achieve 20% specific binding. Insulin receptor binding assays were performed using 100 μg protein. IGF-I binding assays required 25 μg protein per sample, and IGF-II receptor binding assays were optimized using 10 μg protein. […]
(§5) All reactions were performed in 1.5 ml Eppendorff tubes, and the incubations were performed at 4° C. for 16 hours with gentle platform agitation. […] The samples were counted for 1 minute in an LKB CompuGamma CS Gamma counter. Specific binding was calculated by subtracting fmol of non-specific binding, i.e., amount bound in the presence of cold ligand, from the total fmol bound (absence of unlabeled competitive ligand). The results were analyzed and plotted using the GraphPad Prism 4 software (GraphPad Software, Inc., San Diego, Calif.).
Description for IGF-II receptors: as §4, §5
Description for insulin receptors: as §4, §5

For the molecule `CCO` [ethanol], the “reduction of cerebellar membrane cholesterol content relative to control” value in data set [1] is approximately 50%. Besides, the “impairment of insulin receptor binding” value in the data set with insulin receptors is on record as approximately 80%. For the same molecule, in the data set with IGF-II receptors, the “impairment of IGF-II receptor binding” value is given as approximately 50%. The “cerebellar ATP content” value with cerebellar ATP content is “dose-dependent progressive reductions”. The “impairment of IGF-I receptor binding” value in the data set on IGF-I receptors is listed as approximately 80%. Moreover, the “insulin receptor tyrosine kinase activity” value in [2] was “significantly reduced”. Moreover, the “IGF-I receptor tyrosine kinase activity” value in data set [3] is “significantly reduced”. Also, in [4], the “AChE mRNA expression” value was “increases”. The “ChAT mRNA expression” value in data set [5] is listed as “significant reductions”.
